# Measurements: patent US12077503B2, “Substituted cyclic amides and their use as herbicides” (FMC CORPORATION, priority 2015, dated 2024)
# Columns and labels:
# Assay type in all cases: in vivo
# [1] = system: redroot pigweed (Amaranthus retroflexus); experiment: Test G Pre-Emergence Protocol; conditions: Amaranthus retroflexus, pre-emergence, 312 h, evaluated after 13 days; for pest or weed control at 15.625 g/ha: 15.625 g ai/ha; for pest or weed control at 15.625 g/ha / pest or weed control at 250 g/ha: read-out: Pigweed, Redroot damage rating (100=total damage to plant; 0=no damage to plant); for pest or weed control at 62.5 g/ha: 62.5 g ai/ha, 100=total damage to plant, 0=no damage to plant, read-out: Pigweed, Redroot damage rating; for pest or weed control at 250 g/ha: 250 g ai/ha
# How it was run: (§1)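 Scores are visual damage ratings from 0 (no damage) to 100 (total plant kill), taken 13 days after treatment. Compound was sprayed one day post-sowing at 15.625, 62.5 or 250 g/ha in 50:50 acetone/water with 0.5% Tween 20.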
# corn (Zea mays) [2] = experiment: Test G Pre-Emergence Protocol; conditions: Zea mays, pre-emergence, 312 h, evaluated after 13 days; for plant injury at 15.625 g/ha: 15.625 g ai/ha; for plant injury at 15.625 g/ha / plant injury at 250 g/ha: read-out: Corn damage rating (100=total damage to plant; 0=no damage to plant); for plant injury at 62.5 g/ha: 62.5 g ai/ha, 100=total damage to plant, 0=no damage to plant, read-out: Corn damage rating; for plant injury at 250 g/ha: 250 g ai/ha
# How it was run: as §1
# [3] = system: giant foxtail (Setaria faberi); experiment: Test G Pre-Emergence Protocol; conditions: Setaria faberi, pre-emergence, 312 h, evaluated after 13 days; for pest or weed control at 15.625 g/ha: 15.625 g ai/ha; for pest or weed control at 15.625 g/ha / pest or weed control at 250 g/ha: read-out: Foxtail, Giant damage rating (100=total damage to plant; 0=no damage to plant); for pest or weed control at 62.5 g/ha: 62.5 g ai/ha, 100=total damage to plant, 0=no damage to plant, read-out: Foxtail, Giant damage rating; for pest or weed control at 250 g/ha: 250 g ai/ha
# How it was run: as §1
# [4] = system: velvetleaf (Abutilon theophrasti); experiment: Test G Pre-Emergence Protocol; conditions: Abutilon theophrasti, pre-emergence, 312 h, evaluated after 13 days; for pest or weed control at 15.625 g/ha: 15.625 g ai/ha; for pest or weed control at 15.625 g/ha / pest or weed control at 250 g/ha: read-out: Velvetleaf damage rating (100=total damage to plant; 0=no damage to plant); for pest or weed control at 62.5 g/ha: 62.5 g ai/ha, 100=total damage to plant, 0=no damage to plant, read-out: Velvetleaf damage rating; for pest or weed control at 250 g/ha: 250 g ai/ha
# How it was run: as §1
# [5] = system: barnyardgrass (Echinochloa crus-galli); experiment: Test G Pre-Emergence Protocol; conditions: Echinochloa crus-galli, pre-emergence, 312 h, evaluated after 13 days; for pest or weed control at 15.625 g/ha: 15.625 g ai/ha; for pest or weed control at 15.625 g/ha / pest or weed control at 250 g/ha: read-out: Barnyardgrass damage rating (100=total damage to plant; 0=no damage to plant); for pest or weed control at 62.5 g/ha: 62.5 g ai/ha, 100=total damage to plant, 0=no damage to plant, read-out: Barnyardgrass damage rating; for pest or weed control at 250 g/ha: 250 g ai/ha
# How it was run: as §1
# [6] = system: ivy-leaved morning glory (Ipomoea hederacea); experiment: Test G Pre-Emergence Protocol; conditions: Ipomoea, pre-emergence, 312 h, evaluated after 13 days; for pest or weed control at 15.625 g/ha: 15.625 g ai/ha; for pest or weed control at 15.625 g/ha / pest or weed control at 250 g/ha: read-out: Morningglory, Ivy-leaved damage rating (100=total damage to plant; 0=no damage to plant); for pest or weed control at 62.5 g/ha: 62.5 g ai/ha, 100=total damage to plant, 0=no damage to plant, read-out: Morningglory, Ivy-leaved damage rating; for pest or weed control at 250 g/ha: 250 g ai/ha
# How it was run: as §1
# [7] = system: redroot pigweed (Amaranthus retroflexus); experiment: Test G Post-Emergence Protocol; conditions: Amaranthus retroflexus, post-emergence, 312 h, read-out: Pigweed, Redroot damage rating; for pest or weed control at 15.625 g/ha: 15.625 g ai/ha, evaluated after 13 days (100=total damage to plant; 0=no damage to plant); for pest or weed control at 62.5 g/ha: 62.5 g ai/ha; for pest or weed control at 62.5 g/ha / pest or weed control at 250 g/ha: evaluated after 13 days, 100=total damage to plant, 0=no damage to plant; for pest or weed control at 250 g/ha: 250 g ai/ha
# How it was run: (§2)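 Foliar application was made 8 days after sowing, using an aqueous spray of the active in acetone/water (50:50) with 0.5% Tween 20, at doses of 15.625, 62.5 or 250 g/ha. Injury was assessed 13 days later, where 100 meant the plant was fully damaged.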
# corn (Zea mays) [8] = experiment: Test G Post-Emergence Protocol; conditions: Zea mays, post-emergence, 312 h, read-out: Corn damage rating; for plant injury at 15.625 g/ha: 15.625 g ai/ha, evaluated after 13 days (100=total damage to plant; 0=no damage to plant); for plant injury at 62.5 g/ha: 62.5 g ai/ha; for plant injury at 62.5 g/ha / plant injury at 250 g/ha: evaluated after 13 days, 100=total damage to plant, 0=no damage to plant; for plant injury at 250 g/ha: 250 g ai/ha
# How it was run: as §2
# [9] = system: giant foxtail (Setaria faberi); experiment: Test G Post-Emergence Protocol; conditions: Setaria faberi, post-emergence, 312 h, read-out: Foxtail, Giant damage rating; for pest or weed control at 15.625 g/ha: 15.625 g ai/ha, evaluated after 13 days (100=total damage to plant; 0=no damage to plant); for pest or weed control at 62.5 g/ha: 62.5 g ai/ha; for pest or weed control at 62.5 g/ha / pest or weed control at 250 g/ha: evaluated after 13 days, 100=total damage to plant, 0=no damage to plant; for pest or weed control at 250 g/ha: 250 g ai/ha
# How it was run: as §2
# [10] = system: velvetleaf (Abutilon theophrasti); experiment: Test G Post-Emergence Protocol; conditions: Abutilon theophrasti, post-emergence, 312 h, read-out: Velvetleaf damage rating; for pest or weed control at 15.625 g/ha: 15.625 g ai/ha, evaluated after 13 days (100=total damage to plant; 0=no damage to plant); for pest or weed control at 62.5 g/ha: 62.5 g ai/ha; for pest or weed control at 62.5 g/ha / pest or weed control at 250 g/ha: evaluated after 13 days, 100=total damage to plant, 0=no damage to plant; for pest or weed control at 250 g/ha: 250 g ai/ha
# How it was run: as §2
# [11] = system: barnyardgrass (Echinochloa crus-galli); experiment: Test G Post-Emergence Protocol; conditions: Echinochloa crus-galli, post-emergence, 312 h, read-out: Barnyardgrass damage rating; for pest or weed control at 15.625 g/ha: 15.625 g ai/ha, evaluated after 13 days (100=total damage to plant; 0=no damage to plant); for pest or weed control at 62.5 g/ha: 62.5 g ai/ha; for pest or weed control at 62.5 g/ha / pest or weed control at 250 g/ha: evaluated after 13 days, 100=total damage to plant, 0=no damage to plant; for pest or weed control at 250 g/ha: 250 g ai/ha
# How it was run: as §2
# [12] = system: ivy-leaved morning glory (Ipomoea hederacea); experiment: Test G Post-Emergence Protocol; conditions: Ipomoea, post-emergence, 312 h, read-out: Morningglory, Ivy-leaved damage rating; for pest or weed control at 15.625 g/ha: 15.625 g ai/ha, evaluated after 13 days (100=total damage to plant; 0=no damage to plant); for pest or weed control at 62.5 g/ha: 62.5 g ai/ha; for pest or weed control at 62.5 g/ha / pest or weed control at 250 g/ha: evaluated after 13 days, 100=total damage to plant, 0=no damage to plant; for pest or weed control at 250 g/ha: 250 g ai/ha
# How it was run: as §2
smiles,measurement,setting,value
CCOc1ccc(C2CN(C)C(=O)C2C(=O)Nc2cccc(F)c2F)cc1F (stereo not drawn) [Compound 1717],pest or weed control at 15.625 g/ha,[1],0%
same,pest or weed control at 62.5 g/ha,[1],10%
same,pest or weed control at 250 g/ha,[1],20%
same,plant injury at 15.625 g/ha,corn (Zea mays) [2],0%
same,plant injury at 62.5 g/ha,corn (Zea mays) [2],0%
same,plant injury at 250 g/ha,corn (Zea mays) [2],0%
same,pest or weed control at 15.625 g/ha,[3],60%
same,pest or weed control at 62.5 g/ha,[3],90%
same,pest or weed control at 250 g/ha,[3],90%
same,pest or weed control at 15.625 g/ha,[4],0%
same,pest or weed control at 62.5 g/ha,[4],10%
same,pest or weed control at 250 g/ha,[4],0%
same,pest or weed control at 15.625 g/ha,[5],0%
same,pest or weed control at 62.5 g/ha,[5],40%
same,pest or weed control at 250 g/ha,[5],90%
same,pest or weed control at 15.625 g/ha,[6],0%
same,pest or weed control at 62.5 g/ha,[6],0%
same,pest or weed control at 250 g/ha,[6],0%
same,pest or weed control at 15.625 g/ha,[7],0%
same,pest or weed control at 62.5 g/ha,[7],0%
same,pest or weed control at 250 g/ha,[7],0%
same,plant injury at 15.625 g/ha,corn (Zea mays) [8],0%
same,plant injury at 62.5 g/ha,corn (Zea mays) [8],0%
same,plant injury at 250 g/ha,corn (Zea mays) [8],10%
same,pest or weed control at 15.625 g/ha,[9],30%
same,pest or weed control at 62.5 g/ha,[9],70%
same,pest or weed control at 250 g/ha,[9],80%
same,pest or weed control at 15.625 g/ha,[10],0%
same,pest or weed control at 62.5 g/ha,[10],0%
same,pest or weed control at 250 g/ha,[10],0%
same,pest or weed control at 15.625 g/ha,[11],0%
same,pest or weed control at 62.5 g/ha,[11],60%
same,pest or weed control at 250 g/ha,[11],70%
same,pest or weed control at 15.625 g/ha,[12],0%
same,pest or weed control at 62.5 g/ha,[12],0%
same,pest or weed control at 250 g/ha,[12],0%
CC(C)Oc1cc(F)cc(C2CN(C)C(=O)C2C(=O)Nc2cccc(F)c2F)c1 (stereo not drawn) [Compound 1724],pest or weed control at 15.625 g/ha,[1],0%
same,pest or weed control at 62.5 g/ha,[1],0%
same,pest or weed control at 250 g/ha,[1],0%
same,plant injury at 15.625 g/ha,corn (Zea mays) [2],0%
same,plant injury at 62.5 g/ha,corn (Zea mays) [2],40%
same,plant injury at 250 g/ha,corn (Zea mays) [2],90%
same,pest or weed control at 15.625 g/ha,[3],70%
same,pest or weed control at 62.5 g/ha,[3],70%
same,pest or weed control at 250 g/ha,[3],90%
same,pest or weed control at 15.625 g/ha,[4],0%
same,pest or weed control at 62.5 g/ha,[4],0%
same,pest or weed control at 250 g/ha,[4],0%
same,pest or weed control at 15.625 g/ha,[5],50%
same,pest or weed control at 62.5 g/ha,[5],70%
same,pest or weed control at 250 g/ha,[5],90%
same,pest or weed control at 15.625 g/ha,[6],0%
same,pest or weed control at 62.5 g/ha,[6],0%
same,pest or weed control at 250 g/ha,[6],0%
same,pest or weed control at 15.625 g/ha,[7],0%
same,pest or weed control at 62.5 g/ha,[7],10%
same,pest or weed control at 250 g/ha,[7],60%
same,plant injury at 15.625 g/ha,corn (Zea mays) [8],0%
same,plant injury at 62.5 g/ha,corn (Zea mays) [8],30%
same,plant injury at 250 g/ha,corn (Zea mays) [8],90%
same,pest or weed control at 15.625 g/ha,[9],70%
same,pest or weed control at 62.5 g/ha,[9],70%
same,pest or weed control at 250 g/ha,[9],90%
same,pest or weed control at 15.625 g/ha,[10],0%
same,pest or weed control at 62.5 g/ha,[10],10%
same,pest or weed control at 250 g/ha,[10],70%
same,pest or weed control at 15.625 g/ha,[11],40%
same,pest or weed control at 62.5 g/ha,[11],70%
same,pest or weed control at 250 g/ha,[11],90%
same,pest or weed control at 15.625 g/ha,[12],40%
same,pest or weed control at 62.5 g/ha,[12],30%
same,pest or weed control at 250 g/ha,[12],70%
